Publication PMC11613273, “High-Affinity Peptides for Target Protein Screened in Ultralarge Virtual Libraries” (ACS Central Science, 2024)
Where no end group is shown, it is not given here.

How the values were obtained:
[1] = target: SARS-CoV-2 RBD (Severe acute respiratory syndrome coronavirus 2, UniProt P0DTC2); format: binding; settings: maximum steady-state BLI response signal from fit
[2] = target: Noro P-domain (Norovirus Hu/GII.4/Sydney/NSW0514/2012/AU, UniProt K4LM89); assay: BLI analysis, steady-state; format: binding, Norovirus GII.4; settings: maximum steady-state BLI response signal from fit
[3] = target: T1, AFP (Homo sapiens, UniProt P02771); assay: BLI analysis, steady-state; format: binding; settings: for Kd: BLI Octet Red96, biotinylated target on SSA sensors, peptide 3.125 to 200 nM, 25°C, kinetics buffer (10 mM PBS, 0.1% BSA, 0.05% Tween-20), steady-state fit, 1:1 model; for Rmax: maximum steady-state BLI response signal from fit
T1 construct: purchased Sino Biological Co., LTD; (Beijing)
T1 sequence (P02771 19-609): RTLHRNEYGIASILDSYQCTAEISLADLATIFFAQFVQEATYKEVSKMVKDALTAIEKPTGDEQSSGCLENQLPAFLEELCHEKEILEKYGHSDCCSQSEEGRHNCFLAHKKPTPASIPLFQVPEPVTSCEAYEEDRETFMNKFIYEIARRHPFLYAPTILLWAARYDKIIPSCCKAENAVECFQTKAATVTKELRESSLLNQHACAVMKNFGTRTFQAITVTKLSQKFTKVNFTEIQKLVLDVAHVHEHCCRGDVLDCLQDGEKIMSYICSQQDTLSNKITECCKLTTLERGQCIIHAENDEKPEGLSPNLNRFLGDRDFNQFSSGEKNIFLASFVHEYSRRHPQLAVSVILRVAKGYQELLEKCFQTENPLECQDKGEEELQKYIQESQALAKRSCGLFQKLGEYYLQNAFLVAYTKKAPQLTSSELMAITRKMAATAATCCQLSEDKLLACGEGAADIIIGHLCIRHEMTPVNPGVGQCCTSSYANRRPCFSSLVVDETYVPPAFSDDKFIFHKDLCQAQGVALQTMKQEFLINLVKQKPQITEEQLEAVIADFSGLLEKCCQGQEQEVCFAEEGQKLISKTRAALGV

| Sequence | Rmax [1] | Rmax [2] | Kd [3] | Rmax [3] |
| --- | --- | --- | --- | --- |
| CPPPAPQFPFPWPPW [Pep-2458] | 0.2149±0.0080 nm | – | – | – |
| CPPPPPYYKPPGHPP [Pep-6626] | 0.1940±0.0063 nm | – | – | – |
| FPPPPPHPWPPPPWA [Pep-21] | – | 0.7092±0.0344 nm | – | – |
| WWWWWPHHDWKLVWC [Pep-7937] | – | – | 40.6 ± 7.31 nM | 0.0945±0.0061 nm |
| CPPPFPGRPPPWPPF [Pep-1927] | 0.1296±0.0076 nm | – | – | – |
| FPPPPWWDWPPPPWW [Pep-595] | – | 0.4957±0.0130 nm | – | – |
| PIWWYHAEKPEHWPI [Pep-5890] | – | – | 74.8 ± 11 nM | 0.2242±0.0144 nm |
| WWALEHYPPPYMQIW [Pep-6973] | – | – | 69.3 ± 14.4 nM | 0.2449±0.0216 nm |
| FFGPPPWPPPPPPWY [Pep-3076] | – | 0.4267±0.0208 nm | – | – |
